Measurements as given in ChEMBL document CHEMBL5724914, “Linking interpersonal differences in gut microbiota composition and drug biotransformation activity” (2024).

Settings: human gut metagenome, 24 h, 2 µM
Note: call rule not given here.

SMILES	Bacterial Biotransformation
CCC(=O)NCC[C@@H]1CCc2ccc3c(c21)CCO3 [RAMELTEON]	Compound metabolized
COc1ccc2c3c1O[C@H]1C[C@@H](O)C=C[C@@]31CCN(C)C2 [GALANTAMINE]	Compound NOT metabolized

Settings: human gut metagenome, 24 h, 2 µM
Remark: another data set of the same source

SMILES	Bacterial Biotransformation
CCC(=O)NCC[C@@H]1CCc2ccc3c(c21)CCO3 [RAMELTEON]	Compound metabolized
COc1ccc2c3c1O[C@H]1C[C@@H](O)C=C[C@@]31CCN(C)C2 [GALANTAMINE]	Compound NOT metabolized

Settings: human gut metagenome, 24 h, 2 µM
Remark: another data set of the same source

SMILES	Bacterial Biotransformation
CCC(=O)NCC[C@@H]1CCc2ccc3c(c21)CCO3 [RAMELTEON]	Compound metabolized
COc1ccc2c3c1O[C@H]1C[C@@H](O)C=C[C@@]31CCN(C)C2 [GALANTAMINE]	Compound metabolized

Experiment: (§1) The drug is tested on Z-007 corresponding to rat gut metagenome with ENA study accession number: PRJEB37062 and ENA sample accession number: ERS12561807 for biotransformation under anaerobic condition. The drug concentrations were measured over 9 timepoints collected between 0 and 24 hours of incubation by liquid-chromatography-coupled mass spectrometry (LC–MS)
Settings: 2 µM

SMILES	Bacterial Biotransformation
CCC(=O)NCC[C@@H]1CCc2ccc3c(c21)CCO3 [RAMELTEON]	Compound NOT metabolized
COc1ccc2c3c1O[C@H]1C[C@@H](O)C=C[C@@]31CCN(C)C2 [GALANTAMINE]	Compound NOT metabolized

Experiment: as §1, with “Z-005” for “Z-007”, “to” for “to rat gut”, “ERS12561805” for “ERS12561807”
Settings: 2 µM

SMILES	Bacterial Biotransformation
CCC(=O)NCC[C@@H]1CCc2ccc3c(c21)CCO3 [RAMELTEON]	Compound NOT metabolized
COc1ccc2c3c1O[C@H]1C[C@@H](O)C=C[C@@]31CCN(C)C2 [GALANTAMINE]	Compound NOT metabolized

Settings: human gut metagenome, 24 h, 2 µM
Remark: another data set of the same source

SMILES	Bacterial Biotransformation
CCC(=O)NCC[C@@H]1CCc2ccc3c(c21)CCO3 [RAMELTEON]	Compound metabolized
COc1ccc2c3c1O[C@H]1C[C@@H](O)C=C[C@@]31CCN(C)C2 [GALANTAMINE]	Compound NOT metabolized

Settings: human gut metagenome, 24 h, 2 µM
Remark: another data set of the same source

SMILES	Bacterial Biotransformation
CCC(=O)NCC[C@@H]1CCc2ccc3c(c21)CCO3 [RAMELTEON]	Compound metabolized
COc1ccc2c3c1O[C@H]1C[C@@H](O)C=C[C@@]31CCN(C)C2 [GALANTAMINE]	Compound metabolized

Settings: human gut metagenome, 24 h, 2 µM
Remark: another data set of the same source

SMILES	Bacterial Biotransformation
CCC(=O)NCC[C@@H]1CCc2ccc3c(c21)CCO3 [RAMELTEON]	Compound metabolized
COc1ccc2c3c1O[C@H]1C[C@@H](O)C=C[C@@]31CCN(C)C2 [GALANTAMINE]	Compound metabolized

Settings: human gut metagenome, 24 h, 2 µM
Remark: another data set of the same source

SMILES	Bacterial Biotransformation
CCC(=O)NCC[C@@H]1CCc2ccc3c(c21)CCO3 [RAMELTEON]	Compound NOT metabolized
COc1ccc2c3c1O[C@H]1C[C@@H](O)C=C[C@@]31CCN(C)C2 [GALANTAMINE]	Compound NOT metabolized

Experiment: as §1, with “Z-029” for “Z-007”, “ERS12561828” for “ERS12561807”
Settings: 2 µM

SMILES	Bacterial Biotransformation
CCC(=O)NCC[C@@H]1CCc2ccc3c(c21)CCO3 [RAMELTEON]	Compound NOT metabolized
COc1ccc2c3c1O[C@H]1C[C@@H](O)C=C[C@@]31CCN(C)C2 [GALANTAMINE]	Compound NOT metabolized

Settings: human gut metagenome, 24 h, 2 µM
Remark: another data set of the same source

SMILES	Bacterial Biotransformation
CCC(=O)NCC[C@@H]1CCc2ccc3c(c21)CCO3 [RAMELTEON]	Compound metabolized
COc1ccc2c3c1O[C@H]1C[C@@H](O)C=C[C@@]31CCN(C)C2 [GALANTAMINE]	Compound NOT metabolized

Experiment: as §1, with “on WLS-240” for “on Z-007”, “to human” for “to rat”, “number: ERS12561773” for “number: ERS12561807”
Settings: 2 µM

SMILES	Bacterial Biotransformation
CCC(=O)NCC[C@@H]1CCc2ccc3c(c21)CCO3 [RAMELTEON]	Compound metabolized
COc1ccc2c3c1O[C@H]1C[C@@H](O)C=C[C@@]31CCN(C)C2 [GALANTAMINE]	Compound metabolized

Experiment: as §1, with “on WLS-082” for “on Z-007”, “to human” for “to rat”, “number: ERS12561751” for “number: ERS12561807”
Settings: 2 µM

SMILES	Bacterial Biotransformation
CCC(=O)NCC[C@@H]1CCc2ccc3c(c21)CCO3 [RAMELTEON]	Compound metabolized
COc1ccc2c3c1O[C@H]1C[C@@H](O)C=C[C@@]31CCN(C)C2 [GALANTAMINE]	Compound NOT metabolized

Experiment: as §1, with “on WLS-350” for “on Z-007”, “to human” for “to rat”, “number: ERS12561789” for “number: ERS12561807”
Settings: 2 µM

SMILES	Bacterial Biotransformation
CCC(=O)NCC[C@@H]1CCc2ccc3c(c21)CCO3 [RAMELTEON]	Compound metabolized
COc1ccc2c3c1O[C@H]1C[C@@H](O)C=C[C@@]31CCN(C)C2 [GALANTAMINE]	Compound metabolized

Settings: human gut metagenome, 24 h, 2 µM
Remark: another data set of the same source

SMILES	Bacterial Biotransformation
CCC(=O)NCC[C@@H]1CCc2ccc3c(c21)CCO3 [RAMELTEON]	Compound metabolized
COc1ccc2c3c1O[C@H]1C[C@@H](O)C=C[C@@]31CCN(C)C2 [GALANTAMINE]	Compound NOT metabolized

Settings: human gut metagenome, 24 h, 2 µM
Remark: another data set of the same source

SMILES	Bacterial Biotransformation
CCC(=O)NCC[C@@H]1CCc2ccc3c(c21)CCO3 [RAMELTEON]	Compound metabolized
COc1ccc2c3c1O[C@H]1C[C@@H](O)C=C[C@@]31CCN(C)C2 [GALANTAMINE]	Compound NOT metabolized

Experiment: as §1, with “on Z-018” for “on Z-007”, “to pig” for “to rat”, “number: ERS12561817” for “number: ERS12561807”
Settings: 2 µM

SMILES	Bacterial Biotransformation
CCC(=O)NCC[C@@H]1CCc2ccc3c(c21)CCO3 [RAMELTEON]	Compound metabolized
COc1ccc2c3c1O[C@H]1C[C@@H](O)C=C[C@@]31CCN(C)C2 [GALANTAMINE]	Compound NOT metabolized

Experiment: as §1, with “on Z-003” for “on Z-007”, “to pig” for “to rat”, “number: ERS12561803” for “number: ERS12561807”
Settings: 2 µM

SMILES	Bacterial Biotransformation
CCC(=O)NCC[C@@H]1CCc2ccc3c(c21)CCO3 [RAMELTEON]	Compound metabolized
COc1ccc2c3c1O[C@H]1C[C@@H](O)C=C[C@@]31CCN(C)C2 [GALANTAMINE]	Compound NOT metabolized

Settings: human gut metagenome, 24 h, 2 µM
Remark: another data set of the same source

SMILES	Bacterial Biotransformation
CCC(=O)NCC[C@@H]1CCc2ccc3c(c21)CCO3 [RAMELTEON]	Compound metabolized
COc1ccc2c3c1O[C@H]1C[C@@H](O)C=C[C@@]31CCN(C)C2 [GALANTAMINE]	Compound metabolized

Experiment: as §1, with “Z-012” for “Z-007”, “to” for “to rat gut”, “ERS12561812” for “ERS12561807”
Settings: 2 µM

SMILES	Bacterial Biotransformation
CCC(=O)NCC[C@@H]1CCc2ccc3c(c21)CCO3 [RAMELTEON]	Compound metabolized
COc1ccc2c3c1O[C@H]1C[C@@H](O)C=C[C@@]31CCN(C)C2 [GALANTAMINE]	Compound NOT metabolized
